± gives the standard deviation of the averaged measurements.
Key:
PLX-4720 = compound: CCCS(=O)(=O)Nc1ccc(F)c(C(=O)c2c[nH]c3ncc(Cl)cc23)c1F [PLX-4720]; assay: surviving fraction relative to DMSO-only wells; higher = less growth inhibition; conditions: exposure time: 5 days
How it was run: (§1)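 Viability was scored with CellTiter-Glo luminescence and normalised to the median of DMSO-only wells as surviving fraction. Beforehand, log-phase tumour cell lines were seeded at 250–500 cells per well in 384-well plates, allowed 24 hours, and exposed continuously for five days to inhibitors at 0.5, 1, 5, 10, 50, 100, 500 and 1000 nM. Only lines whose three screens gave replicate Pearson r >0.7 and median Z' >0.3 were kept.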

[1] = compound: O=C(NOCC1CC1)c1ccc(F)c(F)c1Nc1ccc(I)cc1Cl; assay: as above; conditions: exposure time: 5 days
How it was run: as §1

Test System	surviving fraction (PLX-4720; 0.5 nM)	surviving fraction (PLX-4720; 1 nM)	surviving fraction (PLX-4720; 5 nM)	surviving fraction (PLX-4720; 10 nM)	surviving fraction (PLX-4720; 50 nM)	surviving fraction (PLX-4720; 100 nM)	surviving fraction (PLX-4720; 500 nM)	surviving fraction (PLX-4720; 1000 nM)	surviving fraction ([1]; 0.5 nM)	surviving fraction ([1]; 1 nM)	surviving fraction ([1]; 5 nM)	surviving fraction ([1]; 10 nM)	surviving fraction ([1]; 50 nM)	surviving fraction ([1]; 100 nM)	surviving fraction ([1]; 500 nM)	surviving fraction ([1]; 1000 nM)
22RV1 PROSTATE	1 ± 0.011	0.966 ± 0.076	0.971 ± 0.032	0.958 ± 0.036	0.936 ± 0.04	0.929 ± 0.053	0.825 ± 0.095	0.872 ± 0.049	0.93 ± 0.034	1.03 ± 0.044	0.917 ± 0.04	0.851 ± 0.038	0.714 ± 0.068	0.6767 ± 0.0032	0.631 ± 0.037	0.526 ± 0.019
93VU HEADNECK	0.755 ± 0.071	0.813 ± 0.082	0.798 ± 0.044	0.877 ± 0.024	1.08 ± 0.011	1.07 ± 0.081	0.998 ± 0.092	1.02 ± 0.054	0.859 ± 0.026	0.873 ± 0.089	0.979 ± 0.061	0.828 ± 0.051	0.785 ± 0.074	0.751 ± 0.037	0.417 ± 0.036	0.311 ± 0.097
143B BONE	0.979 ± 0.03	0.972 ± 0.023	0.99 ± 0.021	0.968	0.959 ± 0.061	0.986 ± 0.0071	0.855 ± 0.13	0.996 ± 0.028	0.887 ± 0.14	0.98 ± 0.0057	0.97 ± 0.018	1 ± 0.037	0.857 ± 0.13	0.957 ± 0.037	0.841 ± 0.028	0.542 ± 0.021
A549 LUNG	0.904 ± 0.027	0.928 ± 0.017	0.922 ± 0.017	0.922 ± 0.03	0.942 ± 0.012	0.98 ± 0.018	0.975 ± 0.027	1.02 ± 0.047	0.931 ± 0.014	0.95667 ± 0.00058	0.947 ± 0.017	0.956 ± 0.019	0.964 ± 0.027	1.01 ± 0.02	0.93 ± 0.013	0.886 ± 0.015
ASKA SYNOVIAL	0.402 ± 0.04	0.905 ± 0.07	0.923 ± 0.041	1 ± 0.096	0.635 ± 0.032	1.21 ± 0.033	1.02 ± 0.077	1.08 ± 0.045	0.658 ± 0.015	1.08 ± 0.052	1.08 ± 0.049	1.14 ± 0.035	0.847 ± 0.019	1.11 ± 0.073	0.973 ± 0.034	0.903 ± 0.029
BT20 BREAST	0.783 ± 0.2	0.849 ± 0.16	0.774 ± 0.065	0.803 ± 0.056	1.07 ± 0.1	1.03 ± 0.19	1.05 ± 0.087	1.12 ± 0.067	0.994 ± 0.099	1.06 ± 0.055	1.03 ± 0.091	0.962 ± 0.13	0.905 ± 0.12	0.928 ± 0.055	0.864 ± 0.061	0.849 ± 0.069
BT549 BREAST	0.855 ± 0.11	0.839 ± 0.092	0.857 ± 0.092	0.902 ± 0.074	1.09 ± 0.036	1.29 ± 0.061	1.19 ± 0.03	1.05 ± 0.15	1.03 ± 0.11	1.07 ± 0.088	1.08 ± 0.23	1.14 ± 0.03	1.15 ± 0.062	1.21 ± 0.044	1.3 ± 0.067	1.23 ± 0.16
CADOES1 SOFT TISSUE	0.944 ± 0.025	0.935 ± 0.063	0.915 ± 0.051	0.933 ± 0.075	0.999 ± 0.14	0.869 ± 0.034	0.939 ± 0.075	1 ± 0.049	0.913 ± 0.11	0.844 ± 0.075	0.894 ± 0.15	0.86 ± 0.081	0.903 ± 0.061	0.918 ± 0.1	0.875 ± 0.14	0.746 ± 0.14
CAL51 BREAST	0.926 ± 0.04	0.897 ± 0.026	0.985 ± 0.045	0.939 ± 0.038	0.992 ± 0.027	1.02 ± 0.029	1.04 ± 0.052	1.05 ± 0.04	0.975 ± 0.021	1 ± 0.032	0.981 ± 0.055	0.993 ± 0.017	0.934 ± 0.058	0.944 ± 0.042	0.878 ± 0.032	0.8495 ± 0.0082
CAL120 BREAST	0.852 ± 0.027	0.899 ± 0.051	0.904 ± 0.04	0.881 ± 0.037	0.896 ± 0.022	0.946 ± 0.023	0.889 ± 0.071	0.911 ± 0.013	0.928 ± 0.018	0.9302 ± 0.008	0.966 ± 0.025	0.908 ± 0.015	0.899 ± 0.036	0.898 ± 0.015	0.8322 ± 0.0043	0.805 ± 0.01
CASKI CERVIX	0.795 ± 0.091	0.809 ± 0.029	0.847 ± 0.045	0.848 ± 0.033	0.97 ± 0.02	1.02 ± 0.033	0.998 ± 0.045	1.02 ± 0.058	0.931 ± 0.018	0.944 ± 0.038	0.95 ± 0.051	0.881 ± 0.032	0.766 ± 0.022	0.685 ± 0.045	0.474 ± 0.013	0.454 ± 0.02
CHLA90 AUTONOMIC GANGLIA	0.333 ± 0.039	0.922 ± 0.041	0.753 ± 0.041	0.929 ± 0.044	0.371 ± 0.013	0.94 ± 0.018	0.98 ± 0.049	1.07 ± 0.061	0.469 ± 0.022	0.987 ± 0.003	0.825 ± 0.05	0.894 ± 0.036	0.478 ± 0.044	0.763 ± 0.028	0.662 ± 0.044	0.69 ± 0.015
CME SYNOVIAL	0.101 ± 0.0087	0.904 ± 0.082	0.732 ± 0.072	0.945 ± 0.23	0.217 ± 0.021	1.24 ± 0.14	1.02 ± 0.14	1.12 ± 0.044	0.301 ± 0.075	1.11 ± 0.064	1.04 ± 0.15	1.27 ± 0.12	0.584 ± 0.07	1.22 ± 0.17	0.993 ± 0.16	1.02 ± 0.27
COLO320DM LARGE INTESTINE	0.376 ± 0.022	0.996 ± 0.12	0.921 ± 0.08	1.07 ± 0.11	0.462 ± 0.075	1.07 ± 0.086	1.03 ± 0.088	0.979 ± 0.079	0.544 ± 0.018	1.09 ± 0.032	0.98 ± 0.094	1.09 ± 0.094	0.747 ± 0.053	1.15 ± 0.029	1.11 ± 0.063	1.15 ± 0.043
DU4475 BREAST	0.783 ± 0.23	0.699 ± 0.14	0.791 ± 0.16	0.741 ± 0.1	0.597 ± 0.19	0.603 ± 0.17	0.0833 ± 0.03	0.0277 ± 0.0075	0.859 ± 0.24	0.791 ± 0.12	0.794 ± 0.29	0.674 ± 0.064	0.49 ± 0.15	0.199 ± 0.11	0.0277 ± 0.0074	0.0263 ± 0.0078
H23 LUNG	0.873 ± 0.037	0.943 ± 0.057	0.93 ± 0.055	0.968 ± 0.068	0.971 ± 0.028	1.06 ± 0.018	1.06 ± 0.044	1.17 ± 0.014	0.922 ± 0.025	0.931 ± 0.027	0.834 ± 0.0027	0.741 ± 0.062	0.484 ± 0.029	0.413 ± 0.01	0.341 ± 0.0071	0.342 ± 0.0067

— the supplement of paper PMC6045584
